Reference: patent EP1674470A1, “Sulfonamido-macrocycles as Tie2 inhibitors” (Schering Aktiengesellschaft, priority 2004, dated 2006)

tested on: DU 145; test: Proliferation test (cytotoxicity assay, crystal violet staining); assay type: cell-based; conditions: Homo sapiens; cytotoxicity assay using the cell line DU 145
Method: Biological experiment 3: Proliferation test
To examine cell toxicity a cell proliferation test were established.
With the cell proliferation test different tumour cell lines (e.g. Du 145) can be examined. The cells were dispensed in RPMI 1640 culture medium, supplied with 10 % (v/v) fetal calf serum plus 1 % (v/v) Penicillin/Streptomycin solution at a cell density of 2.000 cell/100µL medium/per well (96well plate). After three hours the cells were washed with PBS (containing calcium and magnesium). 100 µl of culture medium above with 0.1 % (v/v) fetal calf serum was added and cultured at 37°C and 5% CO2-atmosphere. Next day compounds of the present invention diluted in DMSO for appropriate concentrations were added and further 100 µL culture medium 0.5 % (v/v) fetal calf serum. After 5 days cell culturing at 37°C and 5% CO2-atmosphere cells were washed with PBS. 20 µL of glutaraldehyde solution (11 % (v/v)) is added and the cells were slightly shaken at room temperature for 15 min. After that the cell were washed 3 times and dried in the air. 100 µL of crystal violet solution (0.1 % at pH 3.5) were added and the cells were shaken for 30 min. The cells were washed with tap water and air-dried. The colour is dissolved with 100 µL of acetic acid (10 % (v/v)) under strong shaking for 5 min. The absorption was measured at 595 nm wavelength.

Compound | IC50
COC(=O)c1ccc(-c2cnc3nc2NCCCNS(=O)(=O)c2cccc(c2)N3)cc1 [Example Compound 1.1, methyl 4-[4,4-dioxo-4λ^6-thia-2,5,9-triaza-1(2,4)-pyrimidina-3(1,3)-benzenacyclononaphan-1^5-yl]benzoate] | > 1000 nM
CC(=O)c1ccc(-c2cnc3nc2NCCCNS(=O)(=O)c2cccc(c2)N3)cc1 [Example Compound 1.2, 1-[4-[4,4-dioxo-4λ^6-thia-2,5,9-triaza-1(2,4)-pyrimidina-3(1,3)-benzenacyclononaphan-1^5-yl]phenyl]ethanone] | > 1000 nM
O=S1(=O)NCCCNc2nc(ncc2-c2ccccc2)Nc2cccc1c2 [Example Compound 1.3, 1^5-phenyl-4-thia-2,5,9-triaza-1(2,4)-pyrimidina-3(1,3)-benzenacyclononaphane 4,4-dioxide] | > 1000 nM
COc1ccc(-c2cnc3nc2NCCCNS(=O)(=O)c2cccc(c2)N3)cc1 [Example Compound 1.5, 1^5-(4-methoxyphenyl)-4-thia-2,5,9-triaza-1(2,4)-pyrimidina-3(1,3)-benzenacyclononaphane 4,4-dioxide] | > 1000 nM
